Legend:
CRBN-DDB1 = CRBN-DDB1 (Homo sapiens, UniProt Q96SW2); assay: Compound binding to CRBN by HTRF assay; details: CRBN-DDB1 2.5 nM, Cy5-Thalidomide 100 nM, 30 min at ambient temperature; read-out: HTRF Class (Cereblon binding, HTRF IC50)
Procedure: Example 146: Compound Binding to CRBN by HTRF Assay
Compound activity was monitored in a Homogenous Time-Resolved Fluorescence (HTRF) assay using 1-[5-({2-[2-(2-{[2-(2,6-dioxopiperidin-3-yl)-1,3-dioxo-2,3-dihydro-1H-isoindol-4-yl]oxy}acetamido)ethoxy]ethyl}carbamoyl)pentyl]-3,3-dimethyl-2-[(1E,3E)-5-[(2E)-1,3,3-trimethyl-5-sulfo-2,3-dihydro-1H-indol-2-ylidene]penta-1,3-dien-1-yl]-3H-indol-1-ium-5-sulfonate as a fluorescent probe. Biochemical assays were conducted in Greiner white 384 well HiBase plates (Cat. No 784075-25) in 10 μL total volume. A one pot detection solution of CRBN-DDB1 (2.5 nM), Anti-His Terbium Cryptate Gold (1X, PerkinElmer Cat. #: 61HI2TLB), and Cy5-Thalidomide (100 nM, Tenova Cat.: T52461) was prepared in 20 mM HEPES, 20 mM NaCl, 0.2 mM TCEP, 0.2 mM EDTA, and 0.005% Tween20 was dispensed to each assay plate. Compounds were stored in dry, ambient temperatures at 10 mM. A 10-point, 1:3 dilution series was prepared from 10 mM stock concentrations in Echo-compatible LDV plates. 10 nL of each compound dilution series was dispensed into assays wells using an Echo 650 (Labcyte inc. USA). 10 nL of 10 mM Lenalidomide was transferred into the active-control wells for the assay and 10 nL of DMSO was transferred into the neutral-control wells. The assay was then allowed to incubate for 30 min at ambient temperature after transferring compound. Plate measurements were taken on a Pherastar FSX (BMG Labtech, Germany) using the HTRF Red filter (Ex. 337 nm, em1: 620 nm, em2: 665 nm) (Flashes: 50, Integration time: 60-400 us, Z-height: 10 mm, Ratio-multiplier: 10,000). The HTRF signal was then subsequently normalized to the neutral and active controls. Analysis and IC50 values were derived using KNIME analytics (KNIME Zurich) transformation and fitting within Collaborative Drug Discovery (Collaborative Drug Discovery USA). Ki was derived from the geometric mean of the IC50 values using the Cheng-Prustoff transformation.
(§1) In Table 2, each compound is assigned a class (HTRF class) indicating the ability for Cereblon binding by means of their HTRF IC50 values according to […]: A, B, C or D. According to the code, A represents an IC50 value of ≤100 nM, B represents an IC50 value>100 nM and ≤1000 nM, C represents an IC50 value>1000 nM. IF Class assigns each compound a code indicating the ability for GSPT1 degradation: A, B or C. According to the code, A represents a DC50 value of ≤30 nM, B represents a DC50 value>30 nM and ≤300 nM and C represents a DC50 value of >300 nM.

GSPT1 = molecular target: T1, GSPT1 (Homo sapiens, UniProt P15170+Q96SW2); assay: Immunofluorescence assay for activity to degrade GSPT1 in CAL-51 cells; format: cell-based; details: 6 h treatment, read-out: IF Class (GSPT1 degradation, DC50)
T1 construct: CAL-51 cells were purchased from DSMZ (cat. Number ACC302); host or cells: CAL-51
T1 sequence (P15170 whole entry): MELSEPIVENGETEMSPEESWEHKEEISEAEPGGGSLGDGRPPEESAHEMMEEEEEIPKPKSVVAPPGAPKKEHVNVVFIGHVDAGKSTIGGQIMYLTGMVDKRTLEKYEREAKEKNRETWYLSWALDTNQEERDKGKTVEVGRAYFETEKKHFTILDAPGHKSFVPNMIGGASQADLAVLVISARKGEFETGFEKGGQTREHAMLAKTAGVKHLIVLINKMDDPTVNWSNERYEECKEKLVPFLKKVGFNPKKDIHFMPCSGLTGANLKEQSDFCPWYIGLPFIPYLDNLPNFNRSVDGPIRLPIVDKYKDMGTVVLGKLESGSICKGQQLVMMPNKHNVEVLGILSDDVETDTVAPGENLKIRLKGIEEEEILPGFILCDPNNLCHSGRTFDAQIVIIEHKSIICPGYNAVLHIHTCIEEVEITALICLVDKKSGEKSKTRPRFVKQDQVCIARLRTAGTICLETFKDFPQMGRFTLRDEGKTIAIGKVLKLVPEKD
T1 sequence (Q96SW2 whole entry): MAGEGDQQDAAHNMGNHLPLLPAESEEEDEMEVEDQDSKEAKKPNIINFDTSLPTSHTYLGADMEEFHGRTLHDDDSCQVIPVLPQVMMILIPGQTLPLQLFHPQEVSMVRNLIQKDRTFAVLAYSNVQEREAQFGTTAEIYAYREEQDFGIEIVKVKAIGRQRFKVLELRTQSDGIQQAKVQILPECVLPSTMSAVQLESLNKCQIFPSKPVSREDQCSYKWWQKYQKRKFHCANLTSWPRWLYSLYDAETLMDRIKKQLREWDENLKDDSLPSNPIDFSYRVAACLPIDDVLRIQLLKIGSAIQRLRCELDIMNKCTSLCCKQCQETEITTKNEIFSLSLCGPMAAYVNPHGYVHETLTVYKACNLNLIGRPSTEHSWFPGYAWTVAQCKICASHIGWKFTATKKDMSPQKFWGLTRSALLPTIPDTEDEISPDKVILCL
T1 sequence (Q16531 2-1140 partner limits assumed): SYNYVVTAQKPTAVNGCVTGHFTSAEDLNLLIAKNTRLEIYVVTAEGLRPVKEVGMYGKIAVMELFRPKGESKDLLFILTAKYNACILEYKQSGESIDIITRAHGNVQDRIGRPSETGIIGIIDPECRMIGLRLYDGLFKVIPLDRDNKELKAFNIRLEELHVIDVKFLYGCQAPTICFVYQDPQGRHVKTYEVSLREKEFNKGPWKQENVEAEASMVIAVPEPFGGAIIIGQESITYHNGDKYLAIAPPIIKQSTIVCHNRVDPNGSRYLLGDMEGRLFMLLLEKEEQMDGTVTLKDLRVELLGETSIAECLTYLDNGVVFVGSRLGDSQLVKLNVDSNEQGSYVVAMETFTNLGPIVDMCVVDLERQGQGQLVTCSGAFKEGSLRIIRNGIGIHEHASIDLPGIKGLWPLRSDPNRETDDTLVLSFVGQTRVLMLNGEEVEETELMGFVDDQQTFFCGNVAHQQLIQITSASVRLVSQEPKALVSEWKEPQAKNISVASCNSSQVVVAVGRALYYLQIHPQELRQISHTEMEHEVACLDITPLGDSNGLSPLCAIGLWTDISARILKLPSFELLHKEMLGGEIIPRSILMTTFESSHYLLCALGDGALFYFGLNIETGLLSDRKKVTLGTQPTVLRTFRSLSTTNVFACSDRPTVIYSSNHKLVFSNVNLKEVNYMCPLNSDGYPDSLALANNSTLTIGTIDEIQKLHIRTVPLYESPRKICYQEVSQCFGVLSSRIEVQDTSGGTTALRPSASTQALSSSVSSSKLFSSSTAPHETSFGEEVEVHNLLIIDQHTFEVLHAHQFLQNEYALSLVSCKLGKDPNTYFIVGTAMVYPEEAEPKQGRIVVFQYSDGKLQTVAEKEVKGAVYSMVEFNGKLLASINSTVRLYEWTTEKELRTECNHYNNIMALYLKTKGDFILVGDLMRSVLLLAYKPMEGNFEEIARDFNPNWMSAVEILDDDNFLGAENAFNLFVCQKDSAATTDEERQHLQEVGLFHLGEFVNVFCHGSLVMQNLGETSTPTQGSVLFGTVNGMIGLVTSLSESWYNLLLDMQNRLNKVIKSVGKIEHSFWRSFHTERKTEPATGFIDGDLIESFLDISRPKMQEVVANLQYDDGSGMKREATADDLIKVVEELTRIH
Procedure: Example 147: Compound Activity by Immunofluorescence Assay
The representative compounds were tested in an immunofluorescence assay for their activity to degrade GSPT1. CAL-51 cells were purchased from DSMZ (cat. Number ACC302), sub-cultured in 90% Dulbecco's MEM (4.5 g/L glucose, Gibco 11965)+10% heat inactivated FBS (BioConcept, 2-01F136I) and incubated at 37° C., 5% CO2. For the assay imaging microtiter plate Cell Carrier 96 Ultra (Perkin Elmer 6055302) were pre-coated with Fibronectin (Sigma F085, 30 μL at 0.2 μg/mL) in PBS (100 μL, Gibco 14190) for 45 min at room temperature, rinsed with PBS and CAL-51 cells (30K cells/well) were plated and let to adhere overnight. Cells were treated with compounds typically using a serial dilution ranging from 30 μM to 0.1 nM for 6 h. Compounds were stored at 10 mM DMSO stocks. Vehicle (DMSO), positive (CC-885, 10 μM) and rescue controls (positive control plus 0.2 μM bortezomib) were also included at this stage. Cells were subsequently rinsed with PBS and fixed in 10% Formalin solution (50 μL, Sigma HT5011)) for 20 mins at room temperature. Following three consecutive PBS washes (100 μL), cells were permeabilized in 0.1% Triton X-100 in PBS (Sigma 93443, 50 μL) for 15 min. at room temperature. Following three further PBS washes, 50 μL blocking buffer (1% BSA, Sigma A4503, in PBS) was added for 45 min for signal-to noise reduction. Primary antibody (human GSPT1, Sigma HPA052488) was diluted in blocking buffer (dil.1/300, 35 μL/well) and incubated with the cells overnight at 4° C. After three PBS washes, Alexa-fluor 488 coupled secondary antibodies (Invitrogen, A32731, dil. 1/1000), Alexa-fluor 647-Phalloidin (Invitrogen, A22287, dil. 1/200) and DAPI (Thermo, #62248, dil. 1/1000) were diluted in blocking buffer and incubated with the samples for 2 h at room temperature. After three final PBS washes, samples were conserved in 100 μL PBS in the dark, until measurement. Image acquisition was performed on the Operetta High-Content Imager (Perkin-Elmer). Fluorescence intensity of […] (GSPT1), Alexa-Fluor 647 (Actin) and DAPI (Nucleus) were measured. For the determination of GSPT1 DC50 values, a custom algorithm implemented in the PerkinElmer image analysis software Harmony-Acapella® was developed. After user-defined setting of adjustment parameters, the analysis was run identically without human intervention for all image fields. DAPI staining of the nuclei was used to determine the location of cells using standard nuclei detection modules. Segmentation artifacts were removed by threshold-based filters for area, roundness and intensity. The outline of the cells was determined analogously from the sum of the normalized, smoothed DAPI and Actin channel, starting from each nucleus. The Alexa-Fluor 488 (GSPT1) signal intensity in each cell was finally measured, in order to obtain a Mean intensity per cell. GSPT1 degradation (DC50) was calculated after normalization to controls and data import in CDD vault Database, using non-linear regression.
as §1

Sequence of CRBN-DDB1 (Q96SW2 whole entry): as the sequence (Q96SW2 whole entry) above
Sequence of CRBN-DDB1 (Q16531 whole entry partner): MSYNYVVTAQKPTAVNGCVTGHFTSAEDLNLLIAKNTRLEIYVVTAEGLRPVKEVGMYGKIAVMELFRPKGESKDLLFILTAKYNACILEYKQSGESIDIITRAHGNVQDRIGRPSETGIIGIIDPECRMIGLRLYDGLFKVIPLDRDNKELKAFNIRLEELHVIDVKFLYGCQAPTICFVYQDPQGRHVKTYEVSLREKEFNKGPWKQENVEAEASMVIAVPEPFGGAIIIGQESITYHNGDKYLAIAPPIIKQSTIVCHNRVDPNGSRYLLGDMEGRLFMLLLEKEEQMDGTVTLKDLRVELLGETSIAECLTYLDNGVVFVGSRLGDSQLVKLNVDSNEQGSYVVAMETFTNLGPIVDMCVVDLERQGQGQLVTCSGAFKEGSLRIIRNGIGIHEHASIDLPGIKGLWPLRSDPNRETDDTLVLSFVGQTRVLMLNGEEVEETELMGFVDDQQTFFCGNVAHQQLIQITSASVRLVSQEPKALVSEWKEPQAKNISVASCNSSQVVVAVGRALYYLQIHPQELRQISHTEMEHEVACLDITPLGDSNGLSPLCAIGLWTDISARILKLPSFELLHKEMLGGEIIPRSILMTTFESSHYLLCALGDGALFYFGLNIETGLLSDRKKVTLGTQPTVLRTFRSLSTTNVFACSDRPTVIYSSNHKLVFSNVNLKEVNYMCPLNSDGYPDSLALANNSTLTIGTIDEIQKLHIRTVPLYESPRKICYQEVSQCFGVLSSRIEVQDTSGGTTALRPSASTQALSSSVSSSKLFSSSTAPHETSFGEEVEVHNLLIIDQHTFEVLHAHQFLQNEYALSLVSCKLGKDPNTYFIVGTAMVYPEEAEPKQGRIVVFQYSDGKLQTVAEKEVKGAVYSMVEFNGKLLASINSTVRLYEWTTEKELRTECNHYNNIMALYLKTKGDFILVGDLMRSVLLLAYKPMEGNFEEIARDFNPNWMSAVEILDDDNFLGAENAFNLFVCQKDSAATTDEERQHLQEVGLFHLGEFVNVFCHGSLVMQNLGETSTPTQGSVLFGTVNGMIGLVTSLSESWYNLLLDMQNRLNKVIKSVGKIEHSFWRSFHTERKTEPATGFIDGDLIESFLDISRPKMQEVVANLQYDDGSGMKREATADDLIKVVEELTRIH

Structure (SMILES)	IC50 (CRBN-DDB1) [nM]	DC50 (GSPT1) [nM]
O=C1CCC(c2ccc(N3CC(OC(=O)Nc4cccc(OC(F)(F)F)c4)C3)cc2Cl)C(=O)N1 (stereo not drawn) [Compound 36, 1-(3-chloro-4-(2,6-dioxopiperidin-3-yl)phenyl)azetidin-3-yl (3-(trifluoromethoxy)phenyl)carbamate]	> 1000	30 to 300
Cc1ccc(NC(=O)OC2CN(c3ccc(C4CCC(=O)NC4=O)cc3)C2)cc1Cl (stereo not drawn) [Compound 55, 1-(4-(2,6-dioxopiperidin-3-yl)phenyl)azetidin-3-yl (3-chloro-4-methylphenyl)carbamate]	> 1000	30 to 300
O=C1CCC(c2c(F)cc(N3CC(OC(=O)NCC4CCCCC4)C3)cc2F)C(=O)N1 (stereo not drawn) [Compound 127, 1-(4-(2,6-dioxopiperidin-3-yl)-3,5-difluorophenyl)azetidin-3-yl(cyclohexylmethyl) carbamate]	100 to 1000	≤ 30
O=C1CCC(c2c(F)cc(N3CC(OC(=O)NC4CCCCC4)C3)cc2F)C(=O)N1 (stereo not drawn) [Compound 79, 1-(4-(2,6-dioxopiperidin-3-yl)-3,5-difluorophenyl)azetidin-3-yl cyclohexylcarbamate]	100 to 1000	30 to 300
O=C1CCC(c2c(F)cc(N3CC(OC(=O)Nc4ccc(-c5ccccn5)cc4)C3)cc2F)C(=O)N1 (stereo not drawn) [Compound 45, 1-(4-(2,6-dioxopiperidin-3-yl)-3,5-difluorophenyl)azetidin-3-yl (4-(pyridin-2-yl)phenyl)carbamate]	100 to 1000	≤ 30
O=C1CCC(c2c(F)cc(N3CC(NC(=O)Nc4ccc(F)c(OC(F)F)c4)C3)cc2F)C(=O)N1 (stereo not drawn) [Compound 19, 1-(3-(difluoromethoxy)-4-fluorophenyl)-3-(1-(4-(2,6-dioxopiperidin-3-yl)-3,5-difluorophenyl)azetidin-3-yl)urea]	100 to 1000	≤ 30
COc1cc(C2CCC(=O)NC2=O)c(Cl)cc1N1CC(OC(=O)Nc2ccc(C)c(Cl)c2)C1 (stereo not drawn) [Compound 56, 1-(5-chloro-4-(2,6-dioxopiperidin-3-yl)-2-methoxyphenyl)azetidin-3-yl (3-chloro-4-methylphenyl)carbamate]	> 1000	30 to 300
O=C1CCC(c2c(F)cc(N3CC(OC(=O)NCC4CC(F)(F)C4)C3)cc2F)C(=O)N1 (stereo not drawn) [Compound 96, 1-(4-(2,6-dioxopiperidin-3-yl)-3,5-difluorophenyl)azetidin-3-yl ((3,3-difluorocyclobutyl)methyl)carbamate]	100 to 1000	30 to 300

Further lines, results first:

IC50 (CRBN-DDB1) [nM]	DC50 (GSPT1) [nM]	Structure (SMILES)
100 to 1000	> 300	O=C1CCC(c2c(F)cc(N3CC(OC(=O)N4CCCC4)C3)cc2F)C(=O)N1 (stereo not drawn) [Compound 144, 1-(4-(2,6-dioxopiperidin-3-yl)-3,5-difluorophenyl)azetidin-3-yl pyrrolidine-1-carboxylate]
100 to 1000	≤ 30	Cc1ccc(NC(=O)NC2CN(c3cc(F)c(C4CCC(=O)NC4=O)c(F)c3)C2)cc1Cl (stereo not drawn) [Compound 1, 1-(3-chloro-4-methylphenyl)-3-(1-(4-(2,6-dioxopiperidin-3-yl)-3,5-difluorophenyl)azetidin-3-yl)urea]
100 to 1000	30 to 300	Cc1ccc(NC(=O)OC2CN(c3cc(F)c(C4CCC(=O)NC4=O)c(F)c3)C2)cc1OC(F)F (stereo not drawn) [Compound 6, 1-(4-(2,6-dioxopiperidin-3-yl)-3,5-difluoropheny) azetidin-3-yl(3-(difluoromethoxy)-4-methylphenyl) carbamate]
100 to 1000	≤ 30	O=C1CCC(c2c(F)cc(N3CC(OC(=O)Nc4cccc(OC5CC5)c4)C3)cc2F)C(=O)N1 (stereo not drawn) [Compound 37, 1-(4-(2,6-dioxopiperidin-3-yl)-3,5-difluorophenyl)azetidin-3-yl (3-cyclopropoxyphenyl)carbamate]
100 to 1000	≤ 30	Cc1c(Cl)cc(NC(=O)OC2CN(c3cc(F)c(C4CCC(=O)NC4=O)c(F)c3)C2)cc1OCCN1CCOCC1 (stereo not drawn) [Compound 52, 1-(4-(2,6-dioxopiperidin-3-yl)-3,5-difluorophenyl)azetidin-3-yl(3-chloro-4-methyl-5-(2-morpholinoethoxy)phenyl)carbamate]
≤ 100	≤ 30	Cc1c(Cl)cc(NC(=O)NC2CN(c3cc(F)c(C4CCC(=O)NC4=O)c(F)c3)C2)cc1CN1CC2CC1CO2 (stereo not drawn) [Compound 9, 1-(3-(2-oxa-5-azabicyclo[2.2.1]heptan-5-ylmethyl)-5-chloro-4-methylphenyl)-3-(1-(4-(2,6-dioxopiperidin-3-yl)-3,5-difluorophenyl)azetidin-3-yl)urea]
100 to 1000	30 to 300	O=C1CCC(c2c(F)cc(N3CC(OC(=O)Nc4cc(Cl)cc(OC(F)F)c4)C3)cc2F)C(=O)N1 (stereo not drawn) [Compound 38, 1-(4-(2,6-dioxopiperidin-3-yl)-3,5-difluorophenyl)azetidin-3-yl(3-chloro-5-(difluoromethoxy)phenyl) carbamate]
100 to 1000	> 300	O=C1CCC(c2c(F)cc(N3CC(OC(=O)NC4COC4)C3)cc2F)C(=O)N1 (stereo not drawn) [Compound 95, 1-(4-(2,6-dioxopiperidin-3-yl)-3,5-difluorophenyl)azetidin-3-yl oxetan-3-ylcarbamate]
≤ 100	≤ 30	O=C1CCC(c2c(F)cc(N3CC(NC(=O)Nc4ccc(-c5ccccn5)cc4)C3)cc2F)C(=O)N1 (stereo not drawn) [Compound 26, 1-(1-(4-(2,6-dioxopiperidin-3-yl)-3,5-difluorophenyl)azetidin-3-yl)-3-(4-(pyridin-2-yl)phenyl)urea]
≤ 100	≤ 30	Cc1ccccc1-c1ccc(NC(=O)NC2CN(c3cc(F)c(C4CCC(=O)NC4=O)c(F)c3)C2)cn1 (stereo not drawn) [Compound 23, 1-(1-(4-(2,6-dioxopiperidin-3-yl)-3,5-difluorophenyl)azetidin-3-yl)-3-(6-(o-tolyl)pyridin-3-yl)urea]

— patent US20240308976A1, “COMPOUNDS THAT MEDIATE PROTEIN DEGRADATION AND USES THEREOF” (Monte Rosa Therapeutics, Inc., priority 2021, published 2024)
